Measurements published in US6340784B1, “Method for selective increase of the anticarcinogenic glucosinolates in Brassica sp” (Plant Bioscience Limited, priority 1998, dated 2002).
Like-named read-outs stand apart in the source and are kept apart here. Marks after values point to notes of the source that are not given here.

Key:
[1] = system: QR in murine hepatoma Hepa 1c1c7 cells; experiment: Induction of QR (quinone reductase, phase II enzyme) activity in Hepa 1c1c7 cells; assay type: cell-based; design: induction of QR (fold): unit of the concentration uncertain; conditions: for CD: pure compound
Experimental: Extracts from the freeze-dried material were assessed for their induction activity in murine hepatoma Hepa 1c1c7 cells. Approximately 0.1 g of milled freeze-dried material was moistened by addition of water (2 ml), homogenised and left at room temperature for 1 hr with occasional mixing. Hot 70% (v/v) methanol (3 ml) was added and mixed thoroughly prior to incubation for 15 min at +70° C. The homogenates were cooled to room temperature and centrifuged for 5 min at 3000 r.p.m. Supernatants were removed and the volume decreased in a vacuum centrifuge to approximately one fifth of the initial volume. The resulting concentrates were filtered through sterile non-pyrogenic filters ([…]) and stored at −70° C. prior to testing. The concentrations of each extract were expressed as dry weight of original material to each ml of culture medium.
Induction was measured according to published methods (Tawfiq, N., Heaney, R. K., Plumb, J. A., Fenwick, G. R., Musk, S. R. R., & Williamson, G. (1995) Carcinogenesis 16, 1191-1194., Prochaska, H. J., & Santamaria, A. B. (1988) Anal. Biochem. 169, 328-336., Williamson, G., Plumb, G. W., Uda, Y., Price, K. R., & Rhodes, M. J. C. (1996) Carcinogenesis 17, 2385-2387.) with the following modifications. Each sample was analysed at eight concentrations using four replicates for each concentration. b-Napthoflavone was used as a positive control at a concentration of 0.2 mM. […] Each cultivar/hybrid was extracted on three occasions and analysed separately.

[2] = system: QR in murine hepatoma Hepa 1c1c7 cells; conditions: literature value, See Zhang (2), cited from earlier work
[3] = assuming 100% conversion of glucosinolate to isothiocyanate, from plant extracts

C[S+]([O-])CCCN=C=S (stereo not drawn) [3-methylsulfinylpropyl isothiocyanate]
apparent CD value [1, 3]: 0.5 mM
CD value for synthetic isothiocyanate [2]: 2.4 µM

CSCCCN=C=S [3-methylthiopropyl isothiocyanate]
apparent CD value [1, 3]: 1.6 mM
CD value for synthetic isothiocyanate [2]: 3.5 µM

C[S+]([O-])CCCCN=C=S (stereo not drawn) [Synthetic sulforaphane, 4-methylsulfinylbutyl isothiocyanate]
induction of QR (fold) ([1]; at 1.6 (unit uncertain)): three-fold
ability to induce QR activity (in words) ([1]; extracts or compound, cultivar extracts 0.001 mg/ml to 0.125 mg/ml): potent inducer
CD [1]: 0.4 mM
apparent CD value ([1]; synthetic compound, positive control): 0.0003 mM
CD value for synthetic isothiocyanate [2]: 0.4-0.8§ μM
CD value for synthetic isothiocyanate ([2]; listed as 4-methylsulfinylbutyl): 0.4 to 0.8 µM

O=c1cc(-c2ccccc2)oc2ccc3ccccc3c12 [b-Napthoflavone]
induction of QR (fold) ([1]; positive control at 0.2 (unit uncertain)): three-fold
CD [1]: 0.02 mM
